Measurements published in the kinase profiling compilation of Christmann-Franck et al. (2016).

Assays:
Experiment in all cases: radiometric filter-binding kinase assay, Kinase HotSpot
Details in all cases: compound 0.5 µM; ATP 10 µM
MAP4K4 (human) = MAP4K4 (human) (UniProt O95819)
HIPK3 (human) = HIPK3 (human) (UniProt Q9H422)
MELK (human) = MELK (human) (UniProt Q14680)
MINK1 (human) = MINK1 (human) (UniProt Q8N4C8)
EGFR (human) = EGFR (human) (UniProt P00533)
CSNK1G1 (human) = CSNK1G1 (human) (UniProt Q9HCP0)
STK25 (human) = STK25 (human) (UniProt O00506)
PRKCI (human) = PRKCI (human) (UniProt P41743)
PDGFRA (human) = PDGFRA (human) (UniProt P16234)
GRK6 (human) = GRK6 (human) (UniProt P43250)
SRMS (human) = SRMS (human) (UniProt Q9H3Y6)
WNK3 (human) = WNK3 (human) (UniProt Q9BYP7)
CDK7 CCNH MNAT1 (human) = CDK7 CCNH MNAT1 (human) (UniProt P50613+P51948+P51946)
GRK5 (human) = GRK5 (human) (UniProt P34947)
MKNK2 (human) = MKNK2 (human) (UniProt Q9HBH9)
CAMK1D (human) = CAMK1D (human) (UniProt Q8IU85)
CAMK1D (human), sequence (Q8IU85 whole entry, looked up): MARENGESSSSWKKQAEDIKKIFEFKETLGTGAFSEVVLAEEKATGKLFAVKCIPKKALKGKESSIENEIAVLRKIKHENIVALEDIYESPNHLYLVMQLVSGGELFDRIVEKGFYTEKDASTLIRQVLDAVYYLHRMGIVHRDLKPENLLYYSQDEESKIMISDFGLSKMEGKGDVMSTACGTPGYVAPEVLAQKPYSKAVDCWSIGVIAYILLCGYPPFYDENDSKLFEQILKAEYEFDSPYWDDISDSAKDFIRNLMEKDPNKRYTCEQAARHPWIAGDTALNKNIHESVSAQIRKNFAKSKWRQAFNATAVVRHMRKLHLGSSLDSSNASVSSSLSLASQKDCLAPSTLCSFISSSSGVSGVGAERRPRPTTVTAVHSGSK

CDK3 CCNE1 (human) = CDK3 CCNE1 (human) (UniProt Q00526+P24864)
CDK3 CCNE1 (human), sequence (P24864 whole entry, looked up): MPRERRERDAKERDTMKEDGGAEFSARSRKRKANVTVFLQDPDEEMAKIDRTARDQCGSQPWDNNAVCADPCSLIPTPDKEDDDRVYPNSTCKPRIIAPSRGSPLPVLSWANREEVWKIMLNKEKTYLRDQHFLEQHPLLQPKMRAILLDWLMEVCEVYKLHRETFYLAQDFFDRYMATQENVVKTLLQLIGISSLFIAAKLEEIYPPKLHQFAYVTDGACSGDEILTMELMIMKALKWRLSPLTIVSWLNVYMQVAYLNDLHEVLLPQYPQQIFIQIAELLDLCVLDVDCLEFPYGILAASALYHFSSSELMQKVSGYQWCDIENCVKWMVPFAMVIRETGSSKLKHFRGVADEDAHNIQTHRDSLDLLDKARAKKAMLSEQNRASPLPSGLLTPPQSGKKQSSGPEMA
CDK3 CCNE1 (human), sequence (Q00526 whole entry, looked up): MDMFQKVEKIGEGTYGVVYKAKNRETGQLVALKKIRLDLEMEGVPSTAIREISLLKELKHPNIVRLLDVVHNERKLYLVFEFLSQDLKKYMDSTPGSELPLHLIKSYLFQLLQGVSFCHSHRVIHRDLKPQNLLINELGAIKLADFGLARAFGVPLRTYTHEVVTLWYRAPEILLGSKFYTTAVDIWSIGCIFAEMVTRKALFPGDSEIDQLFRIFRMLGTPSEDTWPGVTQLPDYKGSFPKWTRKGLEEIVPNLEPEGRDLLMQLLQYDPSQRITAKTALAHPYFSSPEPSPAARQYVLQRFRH

EPHA7 (human) = EPHA7 (human) (UniProt Q15375)
EPHA7 (human), sequence (Q15375 whole entry, looked up): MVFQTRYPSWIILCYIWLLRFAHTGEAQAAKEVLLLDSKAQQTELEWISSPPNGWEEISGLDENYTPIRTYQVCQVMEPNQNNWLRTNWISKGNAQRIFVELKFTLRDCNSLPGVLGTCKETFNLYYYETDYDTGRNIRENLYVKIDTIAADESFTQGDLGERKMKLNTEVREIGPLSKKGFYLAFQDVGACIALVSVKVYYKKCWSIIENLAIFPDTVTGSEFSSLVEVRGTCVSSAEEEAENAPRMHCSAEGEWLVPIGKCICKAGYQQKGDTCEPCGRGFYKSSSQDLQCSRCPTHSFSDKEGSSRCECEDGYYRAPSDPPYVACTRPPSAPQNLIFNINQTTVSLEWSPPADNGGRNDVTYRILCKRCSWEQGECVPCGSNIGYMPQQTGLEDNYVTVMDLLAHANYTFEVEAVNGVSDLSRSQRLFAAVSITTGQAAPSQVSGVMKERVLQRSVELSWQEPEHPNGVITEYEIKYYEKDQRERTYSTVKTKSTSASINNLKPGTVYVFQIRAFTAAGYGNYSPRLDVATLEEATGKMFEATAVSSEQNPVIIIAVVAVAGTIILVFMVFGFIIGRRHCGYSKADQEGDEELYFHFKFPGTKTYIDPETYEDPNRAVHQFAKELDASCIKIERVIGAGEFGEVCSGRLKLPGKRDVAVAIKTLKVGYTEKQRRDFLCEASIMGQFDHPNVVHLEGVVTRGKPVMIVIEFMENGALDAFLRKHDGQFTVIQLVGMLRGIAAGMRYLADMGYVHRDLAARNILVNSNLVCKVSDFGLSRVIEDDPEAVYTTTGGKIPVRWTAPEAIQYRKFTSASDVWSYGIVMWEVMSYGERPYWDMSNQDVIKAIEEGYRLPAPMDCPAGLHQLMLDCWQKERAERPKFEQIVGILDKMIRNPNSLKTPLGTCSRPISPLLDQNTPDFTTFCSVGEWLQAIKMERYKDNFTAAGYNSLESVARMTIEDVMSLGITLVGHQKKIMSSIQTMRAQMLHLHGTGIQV

PRKCZ (human) = PRKCZ (human) (UniProt Q05513)
PRKCG (human) = PRKCG (human) (UniProt P05129)
CAMK2B (human) = CAMK2B (human) (UniProt Q13554)
CDK2 CCNE1 (human) = CDK2 CCNE1 (human) (UniProt P24941+P24864)
CDK2 CCNE1 (human), sequence (P24864 whole entry, looked up, other chains not shown): as the sequence (P24864 whole entry, looked up) above

PRKCA (human) = PRKCA (human) (UniProt P17252)
LCK (human) = LCK (human) (UniProt P06239)
ADRBK1 (human) = ADRBK1 (human) (UniProt P25098)
NEK2 (human) = NEK2 (human) (UniProt P51955)
PDGFRB (human) = PDGFRB (human) (UniProt P09619)
DYRK1A (human) = DYRK1A (human) (UniProt Q13627)
CAMK1 (human) = CAMK1 (human) (UniProt Q14012)
PRKD1 (human) = PRKD1 (human) (UniProt Q15139)
AKT3 (human) = AKT3 (human) (UniProt Q9Y243)
CAMKK1 (human) = CAMKK1 (human) (UniProt Q8N5S9)
NEK4 (human) = NEK4 (human) (UniProt P51957)
TGFBR1 (human) = TGFBR1 (human) (UniProt P36897)
NTRK1 (human) = NTRK1 (human) (UniProt P04629)
CDK1 CCNB1 (human) = CDK1 CCNB1 (human) (UniProt P06493+P14635)
CHUK (human) = CHUK (human) (UniProt O15111)
ACVR1 (human) = ACVR1 (human) (UniProt Q04771)
LIMK1 (human) = LIMK1 (human) (UniProt P53667)
ALK (human) = ALK (human) (UniProt Q9UM73)
ALK (human), sequence (Q9UM73 whole entry, looked up): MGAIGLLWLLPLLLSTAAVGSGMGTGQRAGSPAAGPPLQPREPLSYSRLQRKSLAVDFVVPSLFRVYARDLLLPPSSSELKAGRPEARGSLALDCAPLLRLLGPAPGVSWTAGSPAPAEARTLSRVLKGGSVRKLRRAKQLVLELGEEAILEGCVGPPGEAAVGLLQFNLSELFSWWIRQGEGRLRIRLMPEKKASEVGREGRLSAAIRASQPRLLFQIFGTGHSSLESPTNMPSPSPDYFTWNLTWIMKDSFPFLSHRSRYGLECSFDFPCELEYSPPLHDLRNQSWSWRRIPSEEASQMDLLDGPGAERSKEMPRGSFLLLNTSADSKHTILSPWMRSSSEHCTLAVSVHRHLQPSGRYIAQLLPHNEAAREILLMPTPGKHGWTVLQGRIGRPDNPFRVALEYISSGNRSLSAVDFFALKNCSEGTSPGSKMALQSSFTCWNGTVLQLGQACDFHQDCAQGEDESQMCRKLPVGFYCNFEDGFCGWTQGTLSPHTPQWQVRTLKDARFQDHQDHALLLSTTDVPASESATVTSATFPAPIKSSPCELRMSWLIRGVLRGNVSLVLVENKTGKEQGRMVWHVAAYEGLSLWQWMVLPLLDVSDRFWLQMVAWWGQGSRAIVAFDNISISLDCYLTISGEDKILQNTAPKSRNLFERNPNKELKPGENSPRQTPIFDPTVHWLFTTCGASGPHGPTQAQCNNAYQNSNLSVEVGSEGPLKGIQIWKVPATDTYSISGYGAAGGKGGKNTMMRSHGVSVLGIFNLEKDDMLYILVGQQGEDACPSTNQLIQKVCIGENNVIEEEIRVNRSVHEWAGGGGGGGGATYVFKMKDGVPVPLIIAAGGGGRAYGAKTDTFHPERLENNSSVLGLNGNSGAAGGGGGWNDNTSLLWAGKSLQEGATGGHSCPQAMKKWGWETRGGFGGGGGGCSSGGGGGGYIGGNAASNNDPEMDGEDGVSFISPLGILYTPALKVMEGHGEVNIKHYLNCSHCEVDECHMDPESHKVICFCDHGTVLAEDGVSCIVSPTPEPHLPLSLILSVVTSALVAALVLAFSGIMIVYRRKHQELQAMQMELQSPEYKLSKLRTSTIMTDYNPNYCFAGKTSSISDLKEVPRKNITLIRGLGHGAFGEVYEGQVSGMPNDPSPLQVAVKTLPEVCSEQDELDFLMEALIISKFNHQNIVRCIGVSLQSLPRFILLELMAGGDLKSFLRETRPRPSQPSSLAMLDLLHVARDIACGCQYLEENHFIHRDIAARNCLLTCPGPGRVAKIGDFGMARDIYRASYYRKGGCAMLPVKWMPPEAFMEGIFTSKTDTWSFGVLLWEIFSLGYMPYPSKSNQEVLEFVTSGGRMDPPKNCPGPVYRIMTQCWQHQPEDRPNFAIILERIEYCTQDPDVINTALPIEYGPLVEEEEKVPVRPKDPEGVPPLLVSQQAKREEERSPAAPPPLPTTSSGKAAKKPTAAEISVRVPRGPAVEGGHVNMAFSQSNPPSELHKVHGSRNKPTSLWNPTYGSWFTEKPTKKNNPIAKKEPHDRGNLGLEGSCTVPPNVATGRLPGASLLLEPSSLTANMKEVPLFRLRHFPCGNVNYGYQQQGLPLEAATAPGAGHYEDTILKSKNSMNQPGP

PRKD3 (human) = PRKD3 (human) (UniProt O94806)
SRPK1 (human) = SRPK1 (human) (UniProt Q96SB4)

MINK1 (human), sequence (Q8N4C8 whole entry, looked up): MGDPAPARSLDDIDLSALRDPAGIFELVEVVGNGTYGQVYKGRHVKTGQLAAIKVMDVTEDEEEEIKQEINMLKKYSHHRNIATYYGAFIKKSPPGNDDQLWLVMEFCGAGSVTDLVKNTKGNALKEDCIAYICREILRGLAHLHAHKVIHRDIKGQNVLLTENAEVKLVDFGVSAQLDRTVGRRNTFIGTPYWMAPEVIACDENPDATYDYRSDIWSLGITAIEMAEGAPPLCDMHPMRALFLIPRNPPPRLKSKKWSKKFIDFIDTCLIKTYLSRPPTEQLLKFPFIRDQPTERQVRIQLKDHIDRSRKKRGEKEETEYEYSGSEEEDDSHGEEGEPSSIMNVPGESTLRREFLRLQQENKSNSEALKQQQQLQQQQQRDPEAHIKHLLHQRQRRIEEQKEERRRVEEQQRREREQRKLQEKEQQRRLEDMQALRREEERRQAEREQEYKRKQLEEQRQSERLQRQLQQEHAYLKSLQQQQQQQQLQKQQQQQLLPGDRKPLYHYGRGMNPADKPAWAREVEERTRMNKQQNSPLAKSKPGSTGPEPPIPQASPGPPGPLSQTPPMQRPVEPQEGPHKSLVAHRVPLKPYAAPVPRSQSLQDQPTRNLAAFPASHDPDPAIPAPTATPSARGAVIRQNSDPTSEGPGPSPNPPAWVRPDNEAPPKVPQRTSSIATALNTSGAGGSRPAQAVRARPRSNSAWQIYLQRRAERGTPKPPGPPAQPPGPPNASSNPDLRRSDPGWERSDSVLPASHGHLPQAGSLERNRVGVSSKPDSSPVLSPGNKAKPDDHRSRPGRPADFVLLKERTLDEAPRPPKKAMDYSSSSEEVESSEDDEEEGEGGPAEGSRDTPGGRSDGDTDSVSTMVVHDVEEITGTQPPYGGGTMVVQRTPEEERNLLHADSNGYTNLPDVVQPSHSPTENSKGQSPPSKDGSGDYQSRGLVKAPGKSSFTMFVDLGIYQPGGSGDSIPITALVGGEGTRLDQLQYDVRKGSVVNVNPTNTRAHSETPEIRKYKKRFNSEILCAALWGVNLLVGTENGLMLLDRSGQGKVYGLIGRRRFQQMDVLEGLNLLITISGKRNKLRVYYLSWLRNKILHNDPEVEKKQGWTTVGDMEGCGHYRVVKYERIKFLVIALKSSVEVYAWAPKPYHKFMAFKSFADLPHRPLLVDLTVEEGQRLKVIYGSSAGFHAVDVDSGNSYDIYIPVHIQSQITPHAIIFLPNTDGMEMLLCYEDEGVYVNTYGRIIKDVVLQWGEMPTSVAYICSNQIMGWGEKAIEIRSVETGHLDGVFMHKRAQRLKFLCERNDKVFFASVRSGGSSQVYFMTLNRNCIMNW

CCN(CC)C(=O)c1ccc(Nc2nc(OCC3CCCCC3)c3nc[nH]c3n2)cc1 showed a residual activity (MAP4K4 (human)) of 85.9%, a residual activity (HIPK3 (human)) of 96.4% and a residual activity (MELK (human)) of 76.3%. For the same molecule, the residual activity (MINK1 (human)) was 88.5%, the residual activity (EGFR (human)) was 88.5% and the residual activity (CSNK1G1 (human)) was 68.5%. It also gave a residual activity (STK25 (human)) of 85.2%, a residual activity (PRKCI (human)) of 97.2% and a residual activity (PDGFRA (human)) of 66.6%. For the same molecule, the residual activity (GRK6 (human)) was 99.5%, the residual activity (SRMS (human)) was 84.7% and the residual activity (WNK3 (human)) was 80.6%. It also gave a residual activity (CDK7 CCNH MNAT1 (human)) of 87.6%, a residual activity (GRK5 (human)) of 98.8% and a residual activity (MKNK2 (human)) of 89.3%. It also gave a residual activity (CAMK1D (human)) of 101%, a residual activity (CDK3 CCNE1 (human)) of 90.4% and a residual activity (EPHA7 (human)) of 72.8%. For the same molecule, the residual activity (PRKCZ (human)) was 95.8%, the residual activity (PRKCG (human)) was 94.5% and the residual activity (CAMK2B (human)) was 97.6%. For the same molecule, the residual activity (CDK2 CCNE1 (human)) was 76.5%, the residual activity (PRKCA (human)) was 82.5% and the residual activity (LCK (human)) was 39.8%. For the same molecule, the residual activity (ADRBK1 (human)) was 92.6%, the residual activity (NEK2 (human)) was 91.4% and the residual activity (PDGFRB (human)) was 54.6%. It also gave a residual activity (DYRK1A (human)) of 91.9%, a residual activity (CAMK1 (human)) of 85.6% and a residual activity (PRKD1 (human)) of 62.6%. For the same molecule, the residual activity (AKT3 (human)) was 101%, the residual activity (CAMKK1 (human)) was 96.8% and the residual activity (NEK4 (human)) was 87.9%. It also gave a residual activity (TGFBR1 (human)) of 100%, a residual activity (NTRK1 (human)) of 81.4% and a residual activity (CDK1 CCNB1 (human)) of 62.4%. It also gave a residual activity (CHUK (human)) of 103%, a residual activity (ACVR1 (human)) of 98.8% and a residual activity (LIMK1 (human)) of 35.2%. The residual activity (ALK (human)) was 74.9%, the residual activity (PRKD3 (human)) was 66.5% and the residual activity (SRPK1 (human)) was 91.7%.

Cc1ccc(NC2=CC(=O)c3sc(C)nc3C2=O)cc1 showed a residual activity (MAP4K4 (human)) of 84.5%, a residual activity (HIPK3 (human)) of 101% and a residual activity (MELK (human)) of 93.2%. The residual activity (MINK1 (human)) was 101%, the residual activity (EGFR (human)) was 97.9% and the residual activity (CSNK1G1 (human)) was 102%. It also gave a residual activity (STK25 (human)) of 93.4%, a residual activity (PRKCI (human)) of 96.9% and a residual activity (PDGFRA (human)) of 85.9%. For the same molecule, the residual activity (GRK6 (human)) was 96.8%, the residual activity (SRMS (human)) was 82.4% and the residual activity (WNK3 (human)) was 102%. For the same molecule, the residual activity (CDK7 CCNH MNAT1 (human)) was 95.4%, the residual activity (GRK5 (human)) was 106% and the residual activity (MKNK2 (human)) was 89%. It also gave a residual activity (CAMK1D (human)) of 100%, a residual activity (CDK3 CCNE1 (human)) of 88.5% and a residual activity (EPHA7 (human)) of 92.3%. For the same molecule, the residual activity (PRKCZ (human)) was 98.2%, the residual activity (PRKCG (human)) was 77% and the residual activity (CAMK2B (human)) was 109%. The residual activity (CDK2 CCNE1 (human)) was 72.9%, the residual activity (PRKCA (human)) was 100% and the residual activity (LCK (human)) was 94.2%. It also gave a residual activity (ADRBK1 (human)) of 96.6%, a residual activity (NEK2 (human)) of 96.4% and a residual activity (PDGFRB (human)) of 94.5%. The residual activity (DYRK1A (human)) was 103%, the residual activity (CAMK1 (human)) was 87.6% and the residual activity (PRKD1 (human)) was 102%. The residual activity (AKT3 (human)) was 92.8%, the residual activity (CAMKK1 (human)) was 108% and the residual activity (NEK4 (human)) was 95.3%. It also gave a residual activity (TGFBR1 (human)) of 94.8%, a residual activity (NTRK1 (human)) of 80.6% and a residual activity (CDK1 CCNB1 (human)) of 69.7%. It also gave a residual activity (CHUK (human)) of 91.9%, a residual activity (ACVR1 (human)) of 99.1% and a residual activity (LIMK1 (human)) of 104%. It also gave a residual activity (ALK (human)) of 105%, a residual activity (PRKD3 (human)) of 93.5% and a residual activity (SRPK1 (human)) of 92.6%.

For COc1cc2ncnc(Nc3cccc(Cl)c3)c2cc1OC, the residual activity (MAP4K4 (human)) was 68.1%, the residual activity (HIPK3 (human)) was 98.9% and the residual activity (MELK (human)) was 81.8%. The residual activity (MINK1 (human)) was 83.1%, the residual activity (EGFR (human)) was 0.718% and the residual activity (CSNK1G1 (human)) was 99.9%. For the same molecule, the residual activity (STK25 (human)) was 101%, the residual activity (PRKCI (human)) was 97.5% and the residual activity (PDGFRA (human)) was 93.3%. It also gave a residual activity (GRK6 (human)) of 96.8%, a residual activity (SRMS (human)) of 93.8% and a residual activity (WNK3 (human)) of 97.8%. It also gave a residual activity (CDK7 CCNH MNAT1 (human)) of 99.9%, a residual activity (GRK5 (human)) of 105% and a residual activity (MKNK2 (human)) of 39.5%. The residual activity (CAMK1D (human)) was 96.6%, the residual activity (CDK3 CCNE1 (human)) was 95.2% and the residual activity (EPHA7 (human)) was 65%. The residual activity (PRKCZ (human)) was 102%, the residual activity (PRKCG (human)) was 105% and the residual activity (CAMK2B (human)) was 91.2%. For the same molecule, the residual activity (CDK2 CCNE1 (human)) was 90.4%, the residual activity (PRKCA (human)) was 111% and the residual activity (LCK (human)) was 74.9%. For the same molecule, the residual activity (ADRBK1 (human)) was 96.6%, the residual activity (NEK2 (human)) was 88.3% and the residual activity (PDGFRB (human)) was 100%. For the same molecule, the residual activity (DYRK1A (human)) was 90.7%, the residual activity (CAMK1 (human)) was 99.2% and the residual activity (PRKD1 (human)) was 92.3%. For the same molecule, the residual activity (AKT3 (human)) was 98.3%, the residual activity (CAMKK1 (human)) was 92.2% and the residual activity (NEK4 (human)) was 87.5%. The residual activity (TGFBR1 (human)) was 100%, the residual activity (NTRK1 (human)) was 92.6% and the residual activity (CDK1 CCNB1 (human)) was 90.3%. It also gave a residual activity (CHUK (human)) of 103%, a residual activity (ACVR1 (human)) of 108% and a residual activity (LIMK1 (human)) of 72.4%. It also gave a residual activity (ALK (human)) of 91.5%, a residual activity (PRKD3 (human)) of 86.5% and a residual activity (SRPK1 (human)) of 102%.
